From PMC9402538, “Rational design of a sensitivity-enhanced tracer for discovering efficient APC–Asef inhibitors” (Nature Communications, 2022)
Like-named read-outs stand apart in the source and are kept apart here. Where a SMILES comes first, the peptide text is derived from it. [ ]: non-standard residue; d: D form. The star is where a group is joined. Ala(cPent) = N[C@@H](CC1CCCC1)C(=O)O; Benzoyl(4-OMe) = COc1ccc(C(=O)*)cc1

Molecular target: T1, APC (303–739) (Homo sapiens, UniProt P25054)
T1 sequence (P25054 303-739): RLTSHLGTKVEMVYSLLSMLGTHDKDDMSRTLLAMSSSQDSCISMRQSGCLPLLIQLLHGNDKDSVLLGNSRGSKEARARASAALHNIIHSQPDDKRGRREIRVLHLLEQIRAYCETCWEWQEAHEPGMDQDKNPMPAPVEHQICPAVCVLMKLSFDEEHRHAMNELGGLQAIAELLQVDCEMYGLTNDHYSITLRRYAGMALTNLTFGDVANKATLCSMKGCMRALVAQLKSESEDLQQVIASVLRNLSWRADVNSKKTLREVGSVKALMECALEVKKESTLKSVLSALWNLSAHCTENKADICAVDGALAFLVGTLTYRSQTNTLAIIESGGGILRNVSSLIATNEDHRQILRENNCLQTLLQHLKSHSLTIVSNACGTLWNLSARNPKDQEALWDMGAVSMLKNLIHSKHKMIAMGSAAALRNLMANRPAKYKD
Experiment: FP competitive assay using tracer 7
Format: binding
Settings: for IC50: tracer 7
Procedure, shortened: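 Fluorescence polarization competition: APC (303–739) in 50 mM HEPES pH 7.5, 300 mM NaCl, 1 mM EDTA, 1 mM DTT, preincubated 1 h at room temperature with serially diluted peptides. FITC tracer 7 then added (400 nM stock) and FP read after 1.5 h at room temperature; IC50 by nonlinear regression, triplicates.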

[1] = Conc. 4 μM, individual repeats, Fig3b

## COc1ccc(C(=O)N[C@@H](C)C(=O)NCC(=O)N[C@@H](CCC(=O)O)C(=O)N[C@@H](CO)C(=O)N[C@@H](CC2CCCC2)C(=O)N[C@@H](Cc2ccc(O)cc2)C(=O)N[C@@H](CCC(=O)O)C(N)=O)cc1 [MAI-519] ({Benzoyl(4-OMe)}-AGES[Ala(cPent)]YE-NH2)
Conc. 0.001 μM, individual repeats, Fig3b, read-out: %inhibition
  inhibition at 0.001 µM: 1.6%
Conc. 0.002 μM, individual repeats, Fig3b
  %inhibition: 2.6%
Conc. 0.002 μM, individual repeats, Fig3b, read-out: %inhibition
  inhibition at 0.002 µM: 2.9%
Conc. 0.0039 μM, individual repeats, Fig3b
  %inhibition: 5.4%
Conc. 0.0039 μM, individual repeats, Fig3b, read-out: %inhibition
  inhibition at 0.0039 µM: 4.1%
Conc. 0.006 μM, individual repeats, Fig3b, read-out: %inhibition
  inhibition at 0.006 µM: 4.4%
Conc. 0.0078 μM, individual repeats, Fig3b
  %inhibition: 13.3%
Conc. 0.0078 μM, individual repeats, Fig3b, read-out: %inhibition
  inhibition at 0.0078 µM: 8.8%
Conc. 0.012 μM, individual repeats, Fig3b, read-out: %inhibition
  inhibition at 0.012 µM: 16.9%
Conc. 0.0156 μM, individual repeats, Fig3b
  %inhibition: 35%
Conc. 0.0156 μM, individual repeats, Fig3b, read-out: %inhibition
  inhibition at 0.0156 µM: 24%
Conc. 0.024 μM, individual repeats, Fig3b, read-out: %inhibition
  inhibition at 0.024 µM: 38.4%
Conc. 0.0313 μM, individual repeats, Fig3b
  %inhibition: 59%
Conc. 0.0313 μM, individual repeats, Fig3b, read-out: %inhibition
  inhibition at 0.0313 µM: 51.7%
Conc. 0.049 μM, individual repeats, Fig3b, read-out: %inhibition
  inhibition at 0.049 µM: 60.2%
Conc. 0.0625 μM, individual repeats, Fig3b
  %inhibition: 74.1%
Conc. 0.0625 μM, individual repeats, Fig3b, read-out: %inhibition
  inhibition at 0.0625 µM: 71.7%
Conc. 0.098 μM, individual repeats, Fig3b, read-out: %inhibition
  inhibition at 0.098 µM: 77.7%
Conc. 0.125 μM, individual repeats, Fig3b
  %inhibition: 86.1%
Conc. 0.125 μM, individual repeats, Fig3b, read-out: %inhibition
  inhibition at 0.125 µM: 85.5%
Conc. 0.195 μM, individual repeats, Fig3b, read-out: %inhibition
  inhibition at 0.195 µM: 89%
Conc. 0.25 μM, individual repeats, Fig3b
  %inhibition: 91.7%
Conc. 0.25 μM, individual repeats, Fig3b, read-out: %inhibition
  inhibition at 0.25 µM: 92.8%
Conc. 0.391 μM, individual repeats, Fig3b, read-out: %inhibition
  inhibition at 0.391 µM: 94.2%
Conc. 0.5 μM, individual repeats, Fig3b
  %inhibition: 95.8%
Conc. 0.5 μM, individual repeats, Fig3b, read-out: %inhibition
  inhibition at 0.5 µM: 96.7%
Conc. 0.781 μM, individual repeats, Fig3b, read-out: %inhibition
  inhibition at 0.781 µM: 97.3%
Conc. 1 μM, individual repeats, Fig3b
  %inhibition: 97.7%
Conc. 1 μM, individual repeats, Fig3b, read-out: %inhibition
  inhibition at 1 µM: 98.4%
Conc. 1.563 μM, individual repeats, Fig3b, read-out: %inhibition
  inhibition at 1.563 µM: 98.1%
Conc. 2 μM, individual repeats, Fig3b, read-out: %inhibition
  inhibition at 2 µM: 99.3%
Conc. 3.125 μM, individual repeats, Fig3b, read-out: %inhibition
  inhibition at 3.125 µM: 98.9%
[1]
  %inhibition: 98.8%
  inhibition at 4 µM: 99%
Conc. 6.25 μM, individual repeats, Fig3b, read-out: %inhibition
  inhibition at 6.25 µM: 99.5%
Conc. 8 μM, individual repeats, Fig3b
  inhibition at 8 µM: 99%
Conc. 12.5 μM, individual repeats, Fig3b, read-out: %inhibition
  inhibition at 12.5 µM: 97.6%
Conc. 25 μM, individual repeats, Fig3b, read-out: %inhibition
  inhibition at 25 µM: 97.6%
Conc. 50 μM, individual repeats, Fig3b, read-out: %inhibition
  inhibition at 50 µM: 97.6%
Repeat 1, Conc. 0.006 μM
  mean (FP signal, FigS5): 284.3
Repeat 1, Conc. 0.012 μM
  mean (FP signal, FigS5): 253.5
Repeat 1, Conc. 0.024 μM
  mean (FP signal, FigS5): 200.3
Repeat 1, Conc. 0.049 μM
  mean (FP signal, FigS5): 146.3
Repeat 1, Conc. 0.098 μM
  mean (FP signal, FigS5): 103
Repeat 1, Conc. 0.195 μM
  mean (FP signal, FigS5): 75
Repeat 1, Conc. 0.391 μM
  mean (FP signal, FigS5): 62
Repeat 1, Conc. 0.781 μM
  mean (FP signal, FigS5): 54.3
Repeat 1, Conc. 1.563 μM
  mean (FP signal, FigS5): 52.3
Repeat 1, Conc. 3.125 μM
  mean (FP signal, FigS5): 50.3
Repeat 1, Conc. 6.25 μM
  mean (FP signal, FigS5): 49
Repeat 1, Conc. 12.5 μM
  mean (FP signal, FigS5): 53.7
Repeat 1, Conc. 25 μM
  mean (FP signal, FigS5): 53.7
Repeat 1, Conc. 50 μM
  mean (FP signal, FigS5): 53.7
Repeat 2, Conc. 0.001 μM
  mean (FP signal, FigS5): 301
Repeat 2, Conc. 0.002 μM
  mean (FP signal, FigS5): 297.7
Repeat 2, Conc. 0.0039 μM
  mean (FP signal, FigS5): 294.7
Repeat 2, Conc. 0.0078 μM
  mean (FP signal, FigS5): 282.7
Repeat 2, Conc. 0.0156 μM
  mean (FP signal, FigS5): 244
Repeat 2, Conc. 0.0313 μM
  mean (FP signal, FigS5): 173.3
Repeat 2, Conc. 0.0625 μM
  mean (FP signal, FigS5): 122.3
Repeat 2, Conc. 0.125 μM
  mean (FP signal, FigS5): 87.3
Repeat 2, Conc. 0.25 μM
  mean (FP signal, FigS5): 68.7
Repeat 2, Conc. 0.5 μM
  mean (FP signal, FigS5): 58.7
Repeat 2, Conc. 1 μM
  mean (FP signal, FigS5): 54.3
Repeat 2, Conc. 2 μM
  mean (FP signal, FigS5): 52
Repeat 2, Conc. 4 μM
  mean (FP signal, FigS5): 53
Repeat 2, Conc. 8 μM
  mean (FP signal, FigS5): 53
Repeat 3, Conc. 0.001 μM
  mean (FP signal, FigS5): 292.7
Repeat 3, Conc. 0.002 μM
  mean (FP signal, FigS5): 290.3
Repeat 3, Conc. 0.0039 μM
  mean (FP signal, FigS5): 283.3
Repeat 3, Conc. 0.0078 μM
  mean (FP signal, FigS5): 264
Repeat 3, Conc. 0.0156 μM
  mean (FP signal, FigS5): 211
Repeat 3, Conc. 0.0313 μM
  mean (FP signal, FigS5): 152
Repeat 3, Conc. 0.0625 μM
  mean (FP signal, FigS5): 115
Repeat 3, Conc. 0.125 μM
  mean (FP signal, FigS5): 85.7
Repeat 3, Conc. 0.25 μM
  mean (FP signal, FigS5): 72
Repeat 3, Conc. 0.5 μM
  mean (FP signal, FigS5): 62
Repeat 3, Conc. 1 μM
  mean (FP signal, FigS5): 57.3
Repeat 3, Conc. 2 μM
  mean (FP signal, FigS5): 56.3
Repeat 3, Conc. 4 μM
  mean (FP signal, FigS5): 54.7
Repeat 3, Conc. 8 μM
  mean (FP signal, FigS5): 53.3
Mean of three repeats, read-out: IC50 mean
  IC50: 25.1 nM
read-out: IC50 Repeat 1
  IC50: 23 nM
read-out: IC50 Repeat 2
  IC50: 29.6 nM
read-out: IC50 Repeat 3
  IC50: 22.7 nM
